The text below walks through data of patent US20220409643A1, “ROR Gamma T Inhibitors and Topical Uses Thereof” (Dermira, inc., priority 2019, published 2022).

The inhibition is the percentage by which the read-out fell short of the control.

The first assay relates to IL17A. Description: skin Resident Immune Cell Assay (sRICA), Th17 model, IL17A protein in media. To be noted: 100 uM solution in 1% DMSO/OD applied topically to human skin; media collected 24 hours after Th17 activation. Type of assay: cell-based. On the procedure: A skin Resident Immune Cell Assay (sRICA) was used to test compounds for reduction of IL-17A protein upregulation in the Th17 sRICA model. In this model, human surgical skin waste was cultured in a transwell system, with the dermis in contact with cell culture media and the stratum corneum exposed to air. To perform the assay, each human skin sample was defatted and dermatomed to 750μm. Next, 8 mm punch biopsies were obtained and placed in a membrane transwell. The transwells were inserted into culture wells with complete media, and a cocktail of cytokines and antibodies were added to promote skin resident immune cell polarization.
RORγt inhibitors were prepared as a 100 uM solution in 1% DMSO/OD. […] of the prepared topical solution was applied to sRICA wells prepared for topical drug evaluation. Drugs were allowed to penetrate the skin overnight, for up to 24 hours prior to Th17 activation. Media was collected 24 hours after Th17 activation for IL17A protein assessment. IL17A protein was evaluated using the Quanterix IL17A detection kit on the SiMoA platform (via CRO Translational Biosciences). There was significant upregulation of IL17A with Th17 activation. Each study was normalized to the % max of IL17A production (i.e. the average IL17A concentration of Th17 activated skin alone) was set to 100%, all other values (untreated no activation and treated samples) were obtained as a percentage of this. […]
`COCc1ccc([C@@H](NC(=O)Cn2cnccc2=O)C(=O)Nc2ccc(C(C)(C)C)c(F)c2)cc1` registered an inhibition at 100 µM of 72.1%.

Regarding `COc1ccc2c(c1)CCN(C(=O)c1cc(O)no1)[C@H]2C(=O)Nc1ccc(C(C)(C)C)c(F)c1` (stereo in doubt) [N-(4-tert-butyl-3-fluorophenyl)-2-((3-hydroxy-1,2-oxazol-5-yl)carbonyl)-6-methoxy-1,2,3,4-tetrahydroisoquinoline-1-carboxamide], 100 µM produced 36% inhibition.

In turn, `COc1ccc2c(c1)CCN(C(=O)c1cc(O)no1)[C@H]2C(=O)Nc1cc(F)c2c(c1)CCC2(C)C` (stereo in doubt) [N-(7-fluoro-1,1-dimethyl-2,3-dihydro-1H-inden-5-yl)-2-((3-hydroxy-1,2-oxazol-5-yl)carbonyl)-6-methoxy-1,2,3,4-tetrahydroisoquinoline-1-carboxamide] came in with an inhibition at 100 µM of 42.3%.

Compound `CCOc1ccc2c(c1)CCN(C(=O)Cc1cc(O)no1)[C@H]2C(=O)Nc1cc(F)c2c(c1)CCC2(C)C` [(1R)-6-ethoxy-N-(7-fluoro-1,1-dimethyl-2,3-dihydro-1H-inden-5-yl)-2-((3-hydroxy-1,2-oxazol-5-yl)acetyl)-1,2,3,4-tetrahydroisoquinoline-1-carboxamide] had an inhibition at 100 µM of 67.9%.

In the case of `COCC(C)(C)c1c(F)cc(NC(=O)[C@H]2c3ccc(OC)cc3CCN2C(=O)c2cc(O)no2)cc1F` [(1R)-N-(3,5-difluoro-4-(1-methoxy-2-methylpropan-2-yl)phenyl)-2-((3-hydroxy-1,2-oxazol-5-yl)carbonyl)-6-methoxy-1,2,3,4-tetrahydroisoquinoline-1-carboxamide], the inhibition at 100 µM was 56.2%.

`COCC(C)(C)c1c(F)cc(NC(=O)[C@H]2c3ccc(OC)cc3CCN2C(=O)Cc2cc(O)no2)cc1F` [(1R)-N-(3,5-difluoro-4-(1-methoxy-2-methylpropan-2-yl)phenyl)-6-methoxy-2-((3-hydroxy-1,2-oxazol-5-yl)acetyl)-1,2,3,4-tetrahydro-isoquinoline-1-carboxamide]: at 100 µM the inhibition was 46.3%.

Still in this assay, the particulars now being: Homo sapiens, 24 h, 100 uM solution in 1% DMSO/OD applied topically to human skin; media collected 24 hours after Th17 activation.
Turning to `COCc1ccc([C@@H](NC(=O)Cn2ccc(=O)cc2)C(=O)Nc2ccc([Si](C)(C)C)c(F)c2)cc1`, at 100 µM the inhibition was 78.4%.

`COc1ccc([C@H](C(=O)Nc2ccc([Si](C)(C)C)c(F)c2)N(C)C(=O)c2cc(O)no2)cc1` came in with an inhibition at 100 µM of 76.9%.

Regarding `CC[Si](C)(C)c1c(F)cc(NC(=O)[C@H]2c3ccc(COC)nc3CCN2C(=O)Cc2cc(O)no2)cc1F`, the inhibition at 100 µM was 68.9%.

`COc1ccc([C@@H](NC(=O)c2cc(O)no2)C(=O)Nc2ccc([Si](C)(C)C)c(F)c2)cc1`: 100 µM produced 55.3% inhibition.

In turn, `COCc1ccc([C@@H](NC(=O)CNC(C)=O)C(=O)Nc2ccc([Si](C)(C)C)c(F)c2)cc1` registered an inhibition at 100 µM of 48.8%.

Take `COCc1ccc([C@@H](NC(=O)Cn2c(=O)cc[nH]c2=O)C(=O)Nc2ccc([Si](C)(C)C)c(F)c2)cc1`: testing at 100 µM gave an inhibition of 40.7%.

For the compound `COCc1ccc([C@@H](NC(=O)C2CNC(=O)C2)C(=O)Nc2ccc([Si](C)(C)C)c(F)c2)cc1` (stereo in doubt) [(3R)-N-((1R)-2-((3-fluoro-4-(trimethylsilyl)phenyl)amino)-1-(4-(methoxymethyl)phenyl)-2-oxoethyl)-5-oxopyrrolidine-3-carboxamide], the inhibition at 100 µM was determined as 75.7%.

Turning to `CN(C(=O)c1cc(O)no1)[C@@H](C(=O)Nc1cc(F)c([Si](C)(C)C)c(F)c1)C1CCOCC1` (stereo in doubt) [N-(2-((3,5-difluoro-4-(trimethylsilyl)phenyl)amino)-2-oxo-1-(tetrahydro-2H-pyran-4-yl)ethyl)-3-hydroxy-N-methyl-1,2-oxazole-5-carboxamide], the inhibition at 100 µM came out at 82.5%.

Compound `COc1ccc2c(c1)CCN(C(=O)c1cc(O)no1)[C@H]2C(=O)Nc1ccc([Si](C)(C)C)c(F)c1` (stereo in doubt) [N-(3-fluoro-4-(trimethylsilyl)phenyl)-2-((3-hydroxy-1,2-oxazol-5-yl)carbonyl)-6-methoxy-1,2,3,4-tetrahydroisoquinoline-1-carboxamide] yielded an inhibition at 100 µM of 7.69%.

For the compound `COCc1ccc([C@@H](NC(=O)C2CCN(C(C)=O)CC2)C(=O)Nc2ccc([Si](C)(C)C)c(F)c2)cc1` [1-acetyl-N-((1R)-2-((3-fluoro-4-(trimethylsilyl)phenyl)amino)-1-(4-(methoxymethyl)phenyl)-2-oxoethyl)piperidine-4-carboxamide], 100 µM produced 77.5% inhibition.

For `COc1ccc2c(c1)CCN(C(=O)CCCC(=O)O)[C@H]2C(=O)Nc1cc(F)c([Si](C)(C)C)c(F)c1` [5-((1R)-1-((3,5-difluoro-4-(trimethylsilyl)phenyl)carbamoyl)-6-methoxy-3,4-dihydroisoquinolin-2(1H)-yl)-5-oxopentanoic acid], the inhibition at 100 µM amounted to 76.6%.

Turning to `COCc1ccc2c(c1)CCN(C(=O)CCCC(=O)O)[C@H]2C(=O)Nc1cc(F)c([Si](C)(C)C)c(F)c1` [5-((1R)-1-((3,5-difluoro-4-(trimethylsilyl)phenyl)carbamoyl)-6-methoxymethyl-3,4-dihydroisoquinolin-2(1H)-yl)-5-oxopentanoic acid], the inhibition at 100 µM came to 77.4%.

As to `COCc1ccc2c(c1)CCN(C(=O)CCCC(=O)O)[C@H]2C(=O)Nc1ccc([Si](C)(C)C)c(F)c1` [5-((1R)-1-((3-fluoro-4-(trimethylsilyl)phenyl)carbamoyl)-6-(methoxymethyl)-3,4-dihydroisoquinolin-2(1H)-yl)-5-oxopentanoic acid], testing at 100 µM gave an inhibition of 51.1%.

As to `COc1ccc2c(n1)CCN(C(=O)CCCC(=O)O)[C@H]2C(=O)Nc1ccc([Si](C)(C)C)c(F)c1` [5-((5R)-5-((3-fluoro-4-(trimethylsilyl)phenyl)carbamoyl)-2-methoxy-7,8-dihydro-1,6-naphthyridin-6(5H)-yl)-5-oxopentanoic acid], at 100 µM the inhibition was 51.5%.

Take `CC[Si](C)(C)c1c(F)cc(NC(=O)[C@H]2c3ccc(OC)nc3CCN2C(=O)CCCC(=O)O)cc1F` [5-((5R)-5-((4-(ethyl(dimethyl)silyl)-3,5-difluorophenyl)carbamoyl)-2-methoxy-7,8-dihydro-1,6-naphthyridin-6(5H)-yl)-5-oxopentanoic acid]: 100 µM produced 41.9% inhibition.

For the compound `COCc1ccc([C@@H](NC(=O)CCCC(=O)O)C(=O)Nc2cc(F)c([Si](C)(C)C)c(F)c2)cc1` [5-(((1R)-2-((3,5-difluoro-4-(trimethylsilyl)phenyl)amino)-1-(4-(methoxymethyl)phenyl)-2-oxoethyl)amino)-5-oxopentanoic acid], testing at 100 µM gave an inhibition of 26.7%.

`COc1ccc2c(c1)CCN(C(=O)Cc1cc(O)no1)[C@H]2C(=O)Nc1cc(F)c([Si](C)(C)C)c(F)c1` [(1R)-N-(3,5-difluoro-4-(trimethylsilyl)phenyl)-2-((3-hydroxy-1,2-oxazol-5-yl)acetyl)-6-methoxy-1,2,3,4-tetrahydroisoquinoline-1-carboxamide] returned an inhibition at 100 µM of 49.2%.

Take `COc1ccc2c(c1)CCN(C(=O)Cc1cc(O)no1)[C@H]2C(=O)Nc1ccc([Si](C)(C)C)c(C#N)c1` [(1R)-N-(3-cyano-4-(trimethylsilyl)phenyl)-2-((3-hydroxy-1,2-oxazol-5-yl)acetyl)-6-methoxy-1,2,3,4-tetrahydroisoquinoline-1-carboxamide]: the inhibition at 100 µM was found to be 42.8%.
